Results as given in patent US10988459B2 (priority 2015, dated 2021).

What follows are molecules tested against human RIP1 kinase domain (2-375) (Homo sapiens (Human), UniProt Q13546) (assay: biochemical). Settings: tight-binding apparent inhibition constant; human RIP1 kinase domain (2-375) 50 nM, 50 uM ATP, 2 hours; read-out: Ki.
Format: biochemical
Summary of the method: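 50 nM purified kinase domain from baculovirus-infected insect cells, incubated 2 h with compound in 50 mM Hepes pH 7.5, 30 mM MgCl2, 1 mM DTT, 50 uM ATP, 0.002% Brij-35, 0.5% DMSO. ADP formation read by Transcreener FP at 633 nm excitation. Ki^app fitted with the Morrison tight-binding equation.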

human RIP1 kinase domain (2-375), sequence (Q13546 2-375): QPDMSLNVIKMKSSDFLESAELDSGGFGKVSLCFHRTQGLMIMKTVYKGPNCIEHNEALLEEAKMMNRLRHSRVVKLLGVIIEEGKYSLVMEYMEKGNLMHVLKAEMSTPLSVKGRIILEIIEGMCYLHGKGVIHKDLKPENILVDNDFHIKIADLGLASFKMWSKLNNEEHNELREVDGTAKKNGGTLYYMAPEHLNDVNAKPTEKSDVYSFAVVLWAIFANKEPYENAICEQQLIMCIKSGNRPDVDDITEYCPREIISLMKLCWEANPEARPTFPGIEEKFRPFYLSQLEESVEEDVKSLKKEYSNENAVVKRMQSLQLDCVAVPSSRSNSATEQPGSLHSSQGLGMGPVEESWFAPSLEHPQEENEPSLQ

SMILES | Ki [µM]
Cn1cc(C2CCCc3nc(C(=O)N[C@H]4CCc5cc(F)cc(F)c5NC4=O)nn32)cn1 (stereo partly drawn) [Example 433, N—((S)-7,9-difluoro-2-oxo-2,3,4,5-tetrahydro-1H-benzo[b]azepin-3-yl)-5-(1-methyl-1H-pyrazol-4-yl)-5,6,7,8-tetrahydro-[1,2,4]triazolo[1,5-a]pyridine-2-carboxamide] | 0.143
CN1C(=O)[C@@H](NC(=O)c2nc3c(-c4ccccc4)nccn3n2)COc2ccccc21 [Example 442, (S)—N-(5-methyl-4-oxo-2,3,4,5-tetrahydrobenzo[b][1,4]oxazepin-3-yl)-8-phenyl-[1,2,4]triazolo[1,5-a]pyrazine-2-carboxamide] | 0.00783
CN1C(=O)[C@@H](NC(=O)c2nc3n(n2)CCNC3c2ccccc2)COc2ccccc21 (stereo partly drawn) [Example 452, N—((S)-5-methyl-4-oxo-2,3,4,5-tetrahydrobenzo[b][1,4]oxazepin-3-yl)-8-phenyl-5,6,7,8-tetrahydro-[1,2,4]triazolo[1,5-a]pyrazine-2-carboxamide] | 0.206
CN1C(=O)[C@@H](NC(=O)c2nnc(Cc3ccccc3)[nH]2)CCn2nc3c(c21)CS(=O)(=O)C3 [Example 453, (S)-5-Benzyl-N-(1-methyl-9,9-dioxido-2-oxo-1,2,3,4,5,10-hexahydro-8H-thieno[3′,4′:3,4]pyrazolo[1,5-a][1,3]diazepin-3-yl)-4H-1,2,4-triazole-3-carboxamide] | 0.301
Cc1nc(C(=O)N[C@H]2CCn3nccc3N(C)C2=O)nn1Cc1ccccc1 [Example 462, (S)-1-Benzyl-5-methyl-N-(4-methyl-5-oxo-5,6,7,8-tetrahydro-4H-pyrazolo[1,5-a][1,3]diazepin-6-yl)-1H-1,2,4-triazole-3-carboxamide] | 0.033
CN1C(=O)[C@@H](NC(=O)c2nc3n(n2)[C@@H](c2ccccc2F)CC3)CCn2nccc21 [Example 465, (R)-5-(2-fluorophenyl)-N—((S)-4-methyl-5-oxo-5,6,7,8-tetrahydro-4H-pyrazolo[1,5-a][1,3]diazepin-6-yl)-6,7-dihydro-5H-pyrrolo[1,2-b][1,2,4]triazole-2-carboxamide] | 0.009
CN1C(=O)[C@@H](NC(=O)c2nc3n(n2)[C@H](c2ccccc2F)CC3)CCn2nccc21 [Example 466, (S)-5-(2-fluorophenyl)-N—((S)-4-methyl-5-oxo-5,6,7,8-tetrahydro-4H-pyrazolo[1,5-a][1,3]diazepin-6-yl)-6,7-dihydro-5H-pyrrolo[1,2-b][1,2,4]triazole-2-carboxamide] | 0.803
CN1C(=O)[C@@H](NC(=O)c2nc3n(n2)[C@H](c2ccccc2F)CC3)COc2ccccc21 [Example 467, (S)-5-(2-fluorophenyl)-N—((S)-5-methyl-4-oxo-2,3,4,5-tetrahydrobenzo[b][1,4]oxazepin-3-yl)-6,7-dihydro-5H-pyrrolo[1,2-b][1,2,4]triazole-2-carboxamide] | 0.057
CN1C(=O)[C@@H](NC(=O)c2nc3n(n2)[C@@H](c2ccccc2F)CC3)COc2ccccc21 [Example 468, (R)-5-(2-fluorophenyl)-N—((S)-5-methyl-4-oxo-2,3,4,5-tetrahydrobenzo[b][1,4]oxazepin-3-yl)-6,7-dihydro-5H-pyrrolo[1,2-b][1,2,4]triazole-2-carboxamide] | 0.004
CN1C(=O)[C@@H](NC(=O)c2ncc3n2CC(CC(F)(F)F)CC3)COc2ccccc21 (stereo partly drawn) [Example 469, N-[(3S)-5-methyl-4-oxo-2,3-dihydro-1,5-benzoxazepin-3-yl]-6-(2,2,2-trifluoroethyl)-5,6,7,8-tetrahydroimidazo[1,5-a]pyridine-3-carboxamide] | 1
CN1C(=O)[C@@H](NC(=O)c2ncn(CC3CCCO3)n2)CCn2nc(C3CC3)cc21 (stereo partly drawn) [Example 470] | 2.4
Cc1cc2n(n1)CC[C@H](NC(=O)c1ncn(CC3CCCO3)n1)C(=O)N2C (stereo partly drawn) [Example 474, N-(6S)-2,4-dimethyl-5-oxo-7,8-dihydro-6H-pyrazolo[1,5-a][1,3]diazepin-6-yl-1-(tetrahydrofuran-2-ylmethyl)-1,2,4-triazole-3-carboxamide] | 1.3
Cc1cc2n(n1)CC[C@H](NC(=O)c1ncn(CC3CCCOC3)n1)C(=O)N2C (stereo partly drawn) [Example 475, N-(6S)-2,4-dimethyl-5-oxo-7,8-dihydro-6H-pyrazolo[1,5-a][1,3]diazepin-6-yl-1-(tetrahydropyran-3-ylmethyl)-1,2,4-triazole-3-carboxamide] | 0.36
Cc1cc2n(n1)CC[C@H](NC(=O)c1ncn(CC3CCCCO3)n1)C(=O)N2C (stereo partly drawn) [Example 476, N-(6S)-2,4-dimethyl-5-oxo-7,8-dihydro-6H-pyrazolo[1,5-a][1,3]diazepin-6-yl-1-(tetrahydropyran-2-ylmethyl)-1,2,4-triazole-3-carboxamide] | 0.31
CN1C(=O)[C@@H](NC(=O)c2ncn(CC3CCCCO3)n2)CCn2nc(C3CC3)cc21 (stereo partly drawn) [Example 477] | 0.29
CN1C(=O)[C@@H](NC(=O)c2ncn(CC3CCCOC3)n2)CCn2nc(C3CC3)cc21 (stereo partly drawn) [Example 478] | 0.29
Cc1cc2n(n1)CC[C@H](NC(=O)c1ncn(CC3CCOC3)n1)C(=O)N2C (stereo partly drawn) [Example 479, N-(6S)-2,4-dimethyl-5-oxo-7,8-dihydro-6H-pyrazolo[1,5-a][1,3]diazepin-6-yl-1-(tetrahydrofuran-3-ylmethyl)-1,2,4-triazole-3-carboxamide] | 2.8
CN1C(=O)[C@@H](NC(=O)c2ncn(CC3CCOC3)n2)CCn2nc(C3CC3)cc21 (stereo partly drawn) [Example 480] | 2.6
O=C(N[C@H]1COc2cc(F)cc(F)c2NC1=O)c1ncc2c(n1)C1(CCCC1)OC2 [Example 481, N-[(3S)-6,8-difluoro-4-oxo-3,5-dihydro-2H-1,5-benzoxazepin-3-yl]spiro[5H-furo[3,4-d]pyrimidine-7,1′-cyclopentane]-2-carboxamide] | 0.0049
CN1C(=O)[C@@H](NC(=O)c2ncc3c(n2)C2(CCCC2)OC3)COc2ccccc21 [Example 482] | 0.0057
Cc1cc2n(n1)CC[C@H](NC(=O)c1ncn(C[C@H]3C[C@H](C(F)(F)F)C3)n1)C(=O)N2C [Example 483] | 0.11

Other lines, results leading:

Ki [µM] | SMILES
0.299 | CN1C(=O)C(NC(=O)c2ncn(Cc3ccccc3)n2)CCn2nc(CN3CCOCC3)cc21 (stereo not drawn) [Example 443, 1-benzyl-N-(4-methyl-2-(morpholinomethyl)-5-oxo-5,6,7,8-tetrahydro-4H-pyrazolo[1,5-a][1,3]diazepin-6-yl)-1H-1,2,4-triazole-3-carboxamide]
0.046 | CN1C(=O)C(NC(=O)c2ncn(Cc3ccccc3)n2)CCn2nc(C3CCC3)cc21 (stereo not drawn) [Example 454, 1-Benzyl-N-(2-cyclobutyl-4-methyl-5-oxo-5,6,7,8-tetrahydro-4H-pyrazolo[1,5-a][13]diazepin-6-yl)-1H-1,2,4-triazole-3-carboxamide]
0.06 | CC(C)c1cc2n(n1)CCC(NC(=O)c1ncn(Cc3ccccc3)n1)C(=O)N2C (stereo not drawn) [Example 455, 1-Benzyl-N-(2-isopropyl-4-methyl-5-oxo-5,6,7,8-tetrahydro-4H-pyrazol[1,5-a][1,3]diazepin-6-yl)-1H-1,2,4-triazole-3-carboxamide]
0.051 | CN1C(=O)C(NC(=O)c2ncn(Cc3ccccc3)n2)CCn2nc(CC3CC3)cc21 (stereo not drawn) [Example 456, 1-Benzyl-N-(2-(cyclopropylmethyl)-4-methyl-5-oxo-5,6,7,8-tetrahydro-4H-pyrazol[1,5-a][1,3]diazepin-6-yl)-1H-1,2,4-triazole-3-carboxamide]
0.01 | CC(C)c1cc2n(n1)CC[C@H](NC(=O)c1ncn(Cc3ccccc3)n1)C(=O)N2C [Example 458, (S)-1-Benzyl-N-(2-isopropyl-4-methyl-5-oxo-5,6,7,8-tetrahydro-4H-pyrazolo[1,5-a][1,3]diazepin-6-yl)-1H-1,2,4-triazole-3-carboxamide]
0.007 | CN1C(=O)[C@@H](NC(=O)c2ncn(Cc3ccccc3)n2)CCn2nc(CC3CC3)cc21 [Example 459, (S)-1-benzyl-N-(2-(cyclopropylmethyl)-4-methyl-5-oxo-5,6,7,8-tetrahydro-4H-pyrazolo[1,5-a][1,3]diazepin-6-yl)-1H-1,2,4-triazole-3-carboxamide]
0.041 | CCc1cc2n(n1)CCC(NC(=O)c1ncn(Cc3ccccc3)n1)C(=O)N2C (stereo not drawn) [Example 460, 1-Benzyl-N-(2-ethyl-4-methyl-5-oxo-5,6,7,8-tetrahydro-4H-pyrazolo[1,5-a][1,3]diazepin-6-yl)-1H-1,2,4-triazole-3-carboxamide]
0.05 | CC(C)Oc1cc2n(n1)CCC(NC(=O)c1ncn(Cc3ccccc3)n1)C(=O)N2C (stereo not drawn) [Example 461, 1-Benzyl-N-(2-isopropoxy-4-methyl-5-oxo-5,6,7,8-tetrahydro-4H-pyrazolo[1,5-a][1,3]diazepin-6-yl)-1H-1,2,4-triazole-3-carboxamide]
0.045 | CCc1cc2n(n1)CCC(NC(=O)c1ncn(Cc3ccccc3F)n1)C(=O)N2C (stereo not drawn) [Example 463, N-(2-Ethyl-4-methyl-5-oxo-5,6,7,8-tetrahydro-4H-pyrazolo[1,5-a][1,3]diazepin-6-yl)-1-(2-fluorobenzyl)-1H-1,2,4-triazole-3-carboxamide]
0.014 | CCc1cc2n(n1)CC[C@H](NC(=O)c1ncn(Cc3ccccc3F)n1)C(=O)N2C [Example 464, (S)—N-(2-ethyl-4-methyl-5-oxo-5,6,7,8-tetrahydro-4H-pyrazolo[1,5-a][1,3]diazepin-6-yl)-1-(2-fluorobenzyl)-1H-1,2,4-triazole-3-carboxamide]
0.0051 | Cc1cc2n(n1)CC[C@H](NC(=O)c1ncn(Cc3cccc(Cl)c3Cl)n1)C(=O)N2C [Example 472, 1-[(2,3-dichlorophenyl)methyl]-N-(6S)-2,4-dimethyl-5-oxo-7,8-dihydro-6H-pyrazolo[1,5-a][1,3]diazepin-6-yl-1,2,4-triazole-3-carboxamide]
0.0078 | Cc1cc2n(n1)CC[C@H](NC(=O)c1ncn(Cc3ccc(Cl)cc3Cl)n1)C(=O)N2C [Example 473, 1-[(2,4-dichlorophenyl)methyl]-N-[(6S)-2,4-dimethyl-5-oxo-7,8-dihydro-6H-pyrazolo[1,5-a][1,3]diazepin-6-yl]-1,2,4-triazole-3-carboxamide]
